Consider 4 compounds from US8846876B2, “Compositions containing, methods involving, and uses of non-natural amino acids and polypeptides” (Abrx, Inc., priority 2004, dated 2014).

The subject of data set [1] is RS. The experiment in a line: RS test. How it is done: (§1) This example provides results of four tests that were conducted on certain illustrative non-natural amino acids as an aid for predicting their properties for incorporation into non-natural amino acid polypeptides.
Data set [2] can be described thus: Oxime stability pH 4-8 (testing non-natural amino acids). The class given is physicochemical. As to the method: as §1

As for `CC(=O)c1ccc(C[C@H](N)C(=O)O)cc1`, the RS test entry in data set [1] is listed as “√”.
Turning to `N[C@@H](Cc1ccc2c(c1)NC(=O)C2=O)C(=O)O`, the “Oxime Stability pH 4-8” value in data set [2] is “— —”.
As to `CC(=O)CC(=O)c1ccc(C[C@H](N)C(=O)O)cc1`, the RS test entry in data set [1] is “Meta- bolized”.
For `CC(=O)N/N=C/c1ccc(C[C@H](N)C(=O)O)cc1`, in data set [1], the RS test result is listed as “√”.
